Patent US20220205982A1 (CHILDREN'S HOSPITAL MEDICAL CENTER, priority 2019, published 2022)
“And” between values parts separate entries of the source, which are not always exact repeats. Equal entries are not always repeated. Where two headings read alike, the source gives them in different places.

Test: Melphalan test dose and full dose pharmacokinetics in patients undergoing RIC allogeneic HCT for non-malignant disorders (Bayesian analysis of plasma concentrations)
Assay type: in vivo, human
Conditions: for AUC: human, plasma, intravenous; for Distribution of AUC (h * μg/mL): 3.5-≤6.5 / Distribution of AUC (h * μg/mL): <3.5 / Distribution of AUC (h * μg/mL): >6.5: share of transplants
Experimental: Patients undergoing allogeneic HCT for non-malignant disorders with a uniform RIC regimen that included alemtuzumab, fludarabine and melphalan were enrolled in this study. Full standard dose of melphalan was set as follows: • 140 mg/m^2 in patients having a body weight >10 kg, • 4.7 mg/kg in patients having a body weight <10 kg, and • 70 mg/m^2 in one patient with a radio sensitivity disorder.
The patients were given a test dose of melphalan (10% of the standard full dose) prior to start of their preparative regimen. Test dose of 10% of the full standard dose was determined to be the lowest dose level that would be measurable for a sufficiently long time interval (0-4h) to allow reliable AUC estimation. Accordingly, the test doses used in this study were 14 mg/m^2, 7 mg/m^2 and 0.47 mg/kg for patients having the standard full doses of 140 mg/m^2, 70 mg/m^2 and 4.7 mg/kg, respectively.
Blood samples were obtained for PK measurement after the administration of test dose and the full standard dose of melphalan. A total of 10 blood samples were obtained around each dose of melphalan: at baseline (5-10 min prior to start of the melphalan infusion of) and then approximately at 5 min, 15 min, 30 min, 45 min, 60 min, 2 hour, 2.5, 4, and 6 hours after the end of the melphalan infusion. Samples were collected on ice and transported to the institution's mass spectrometry laboratory for instant analysis by PS-MS/MS and conventional LC-MS/MS. Patient data collected for analysis included baseline organ function, presence of oral and gastrointestinal mucositis, renal and liver dysfunction including VOD, initial donor chimerism, graft rejection, and acute and chronic GVHD (aGVHD and cGVHD). The Common Terminology Criteria for Adverse Events (CTCAE) version 4.0 was used to evaluate adverse events. Acute and chronic GVHD were assessed by standardized published criteria. See, e.g., Glucksberg H, et al. Transplantation. 1974; 18:295-304 and Filipovich A H, et al. Biol Blood Marrow Transplant. 2005; 11:945-956. Interim analyses were completed after enrollment of 5 patients and 10 patients respectively to validate data following 25% and 50% of intended total patient enrollment. The AUC range that led to full donor chimerism without excess toxicity in majority of patients was selected to be the desired target AUC for full dose adjustment. In patients with baseline impaired organ function, personalized full dose melphalan was adjusted to limit toxicity if test dose PK predicted standard full dose AUC was higher than the desired target AUC range.
Melphalan levels were measured by validated PS-MS/MS and LC-MS\MS methods (Mirkou A, etc., J Chromatogr B Analyt Technol Biomed Life Sci. 2009; 877:3089-3096). For the PS-MS/MS method, all samples were analyzed using an automated Paper Spray ion source (Prosolia, Inc. Indianapolis, Ind.) interfaced with a TSQ Quantum Ultra mass spectrometer (Thermo Scientific, San Jose, Calif.) operated in selected reaction monitoring (SRM) mode. XCalibur software was used to control the MS and to process data. Specific precursor/product ions were simultaneously monitored for melphalan and its stable isotopically-labelled internal standard (D8-melphalan) by collision-induced dissociation (CID). Blood samples were prepared by spiking known amounts of melphalan standards and the internal standard into drug free human blood to establish a calibration curve and quality control samples. A small amount of patient's blood […] equilibrated with D8-melphalan solution was deposited on the Paper Spray cartridge and dried. A small volume of solvent optimized to efficiently extract the drug was applied to the paper. A stepwise high voltage (3-5 kV) was then applied inducing an electrospray ionization at the tip of the paper; the solvent evaporates from the droplets generating gas phase ions of the analyte, which then can be detected by a mass spectrometer. […]

[1] = a 4-month infant, normal renal and liver function for age
[2] = median and range, 16 patients with normal organ function
[3] = median and range, 17 patients who received standard full dose
[4] = median and range, patients <10 kg, normal organ function, n=5, dose 0.47 mg/kg, 0.47 mg/kg
[5] = median and range, patients >10 kg, normal organ function, n=11, dose 14 mg/m^2
[6] = median and range, six patients (7 transplants) with impaired organ function, adjusted full dose
[7] = median, PK-adjusted full dose, N = 6 (7)

## N[C@@H](Cc1ccc(N(CCCl)CCCl)cc1)C(=O)O [melphalan, 4-[Bis(2-chloroethyl)amino]-L-phenylalanine]
[1]
  test dose clearance: 15.7 L/h/70 kg
  test dose predicted full dose AUC: 11.1 µg·h/mL
0.44 mg/kg, sixth patient, initial HCT, full dose 0.44 mg/kg (9.3% of standard dose), read-out: AUC achieved
  AUC: 1100 ng·h/mL
0.47 mg/kg, median and range, patients <10 kg, normal organ function, n=5, dose 0.47 mg/kg, read-out: test dose AUC
  AUC: 560 ng·h/mL
1.2 mg/kg, sixth patient, second HCT, full dose 1.2 mg/kg (25.5% of standard dose), read-out: actual observed AUC
  AUC: 3900 ng·h/mL
4.7 mg/kg, infant who developed VOD, read-out: full dose melphalan AUC
  AUC: 6900 ng·h/mL
4.7 mg/kg, median and range, patients <10 kg, standard dose 4.7 mg/kg, n=6, read-out: full dose AUC
  AUC: 4800 ng·h/mL
14 mg/m2, median and range, patients >10 kg, normal organ function, n=11, dose 14 mg/m^2, read-out: test dose AUC
  AUC: 520 ng·h/mL
70 mg/m^2, patient with VOD and diffuse alveolar hemorrhage, ataxia telangiectasia, read-out: full dose melphalan AUC
  AUC: 5000 ng·h/mL
140 mg/m2, median and range, patients >10 kg, standard dose 140 mg/m2, n=11, read-out: full dose AUC
  AUC: 5500 ng·h/mL
140 mg/m2, patient with grade 4 mucositis and gastrointestinal bleeding, read-out: full dose AUC (highest melphalan exposure)
  AUC: 9500 ng·h/mL
Five patients, adjusted full dose 29% to 70% of standard dose, read-out: actual observed AUC with the adjusted dose
  AUC: 3600 to 5400 ng·h/mL
Median and range, 16 patients with normal organ function, read-out: test dose AUC
  AUC: 550 ng·h/mL
Median and range, 17 patients who received standard full dose, read-out: full dose AUC
  AUC: 5500 ng·h/mL
Median and range, six patients (7 transplants) with impaired organ function, adjusted full dose, read-out: test dose AUC
  AUC: 840 ng·h/mL
Median in the 12/17 (70.6%) patients with AUC between 3.5 and 6.5, read-out: full dose AUC
  AUC: 5200 ng·h/mL
median, PK-adjusted full dose, N = 6 (7), read-out: Full dose AUC
  AUC: 3900 ng·h/mL
median, PK-adjusted full dose, N = 6 (7), read-out: Test dose AUC
  AUC: 840 ng·h/mL
median, Standard full dose, N = 16 (16), read-out: Test dose AUC
  AUC: 550 ng·h/mL
median, Standard full dose, N = 17 (17), read-out: Full dose AUC
  AUC: 5500 ng·h/mL
median, Total, N = 22 (23), read-out: Test dose AUC
  AUC: 590 ng·h/mL
median, Total, N = 23 (24), read-out: Full dose AUC
  AUC: 5000 ng·h/mL
Patient with normal organ function who developed grade 4 gastrointestinal mucositis, read-out: full dose AUC
  AUC: 9500 ng·h/mL
Patients with impaired organ function, adjusted full dose, read-out: observed AUC based on the test dose PK guided adjustment
  AUC: 3900 ± 1400 ng·h/mL
Full dose melphalan, RIC HCT for non-malignant disorders, read-out: AUC range well tolerated without excess toxicity and sufficient to facilitate engraftment with full donor chimerism
  AUC: 3500 to 6500 ng·h/mL
Individual patients, full dose
  FCLstd (body weight normalized clearance by allometric scaling): 27.4 L/h/70 kg and 46.9 L/h/70 kg and 43.1 L/h/70 kg and 66.8 L/h/70 kg and 30.2 L/h/70 kg and 59.4 L/h/70 kg and 62.8 L/h/70 kg and 38.9 L/h/70 kg and 18.6 L/h/70 kg and 38.3 L/h/70 kg and 42.7 L/h/70 kg and 18.8 L/h/70 kg and 33.9 L/h/70 kg and 38.0 L/h/70 kg and 29.4 L/h/70 kg and 15.1 L/h/70 kg and 25.0 L/h/70 kg and 12.3 L/h/70 kg and 43.5 L/h/70 kg and 36.9 L/h/70 kg and 19.7 L/h/70 kg and 50.6 L/h/70 kg and 34.5 L/h/70 kg
Individual patients, full dose AUC predicted from test dose PK
  Predicted FAUC (test dose PK evaluation): 2.9 mg · h/L and 6.5 mg · h/L and 5.9 mg · h/L and 5.1 mg · h/L and 5.2 mg · h/L (3×) and 5.7 mg · h/L (2×) and 14.0 mg · h/L and 14.5 mg · h/L and 7.2 mg · h/L and 5.6 mg · h/L and 4.8 mg · h/L and 6.1 mg · h/L and 5.5 mg · h/L and 11.6 mg · h/L and 11.1 mg · h/L and 16.8 mg · h/L and 7.1 mg · h/L and 13.8 mg · h/L and 4.4 mg · h/L and 7.4 mg · h/L
Individual patients, test dose
  TCLstd (test dose body weight normalized clearance by allometric scaling): 47.3 L/h/70 kg and 44.0 L/h/70 kg and 38.8 L/h/70 kg and 56.2 L/h/70 kg and 52.2 L/h/70 kg and 47.8 L/h/70 kg and 49.5 L/h/70 kg and 12.1 L/h/70 kg and 45.2 L/h/70 kg and 18.5 L/h/70 kg and 33.1 L/h/70 kg and 27.5 L/h/70 kg and 33.9 L/h/70 kg and 27.0 L/h/70 kg and 32.3 L/h/70 kg and 13.6 L/h/70 kg and 15.7 L/h/70 kg and 11.3 L/h/70 kg and 35.9 L/h/70 kg and 49.6 L/h/70 kg and 19.2 L/h/70 kg and 67.1 L/h/70 kg and 32.8 L/h/70 kg
[2]
  predicted AUC for standard full dose melphalan: 2.9 to 11.1 µg·h/mL and 5.5 µg·h/mL
  test dose AUC: 0.29 to 1.1 µg·h/mL
[3]
  full dose AUC: 3.0 to 9.5 µg·h/mL
  full dose clearance: 38.3 L/h/70 kg and 25.0-66.8 L/h/70 kg
[4]
  test dose AUC: 0.48 to 1.11 µg·h/mL
  test dose clearance: 27.6 L/hr./70 kg and 15.7-34.0 L/hr./70 kg
Median and range, patients <10 kg, standard dose 4.7 mg/kg, n=6, 4.7 mg/kg
  full dose AUC: 3.0 to 6.9 µg·h/mL
[5]
  test dose AUC: 0.29 to 0.72 µg·h/mL
  test dose clearance: 47.8 L/h/70 kg and 33.1-67.2 L/h/70 kg
Median and range, patients >10 kg, standard dose 140 mg/m2, n=11
  full dose AUC: 4.1 to 9.5 µg·h/mL
Median and range, six patients (7 transplants) with impaired organ function
  test dose PK predicted AUC for standard full dose: 13.8 µg·h/mL and 11.1 to 16.4 µg·h/mL
[6]
  test dose AUC: 0.7 to 1.45 µg·h/mL
  test dose clearance: 18.5 L/hr./70 kg and 11.3-35.9 L/hr./70 kg
median, PK-adjusted full dose
  Test dose PK predicted full close AUC: 13.8 µg·h/mL
[7]
  Full dose CL: 18.8 L/h/70 kg
  Test dose CL: 45.2 L/h/70 kg
median, Standard full dose
  Test dose PK predicted full close AUC: 5.7 µg·h/mL
median, Standard full dose, N = 16 (16)
  Test dose CL: 18.5 L/h/70 kg
median, Standard full dose, N = 17 (17)
  Full dose CL: 38.3 L/h/70 kg
median, Total
  Test dose PK predicted full close AUC: 5.9 µg·h/mL
median, Total, N = 22 (23)
  Test dose CL: 33.9 L/h/70 kg
median, Total, N = 23 (24)
  Full dose CL: 37.4 L/h/70 kg
Patients with impaired organ function, predicted from test dose PK
  full dose AUC if given standard full dose: 11.0 ± 3.6 µg·h/mL
PK-adjusted full dose
  Distribution of AUC (h * μg/mL): 3.5-≤6.5: 85.7%
  Distribution of AUC (h * μg/mL): <3.5: 14.3%
  Distribution of AUC (h * μg/mL): >6.5: 0.0%
Standard full dose
  Distribution of AUC (h * μg/mL): 3.5-≤6.5: 70.6%
  Distribution of AUC (h * μg/mL): <3.5: 5.9%
  Distribution of AUC (h * μg/mL): >6.5: 23.5%
Total
  Distribution of AUC (h * μg/mL): 3.5-≤6.5: 75.0%
  Distribution of AUC (h * μg/mL): <3.5: 8.3%
  Distribution of AUC (h * μg/mL): >6.5: 16.7%
